Columns and labels:
[1] = system: hematopoietic stem and progenitor cells (HSPCs); assay: G-CSF induced HSPC mobilization, colony forming cell (CFC) assay of peripheral blood; assay type: in vivo, mice
Procedure: As mobilization efficiency of HSPC is a quantitative trait, quantitative trait locus (QTL) analysis was chosen as an approach to identify regulators of mobilization efficiency. Mice were mobilized with huG-CSF (Amgen) at 12.5 μg/ml in PBS/0.1% BSA and administered i.p. at 100 μg/kg/day once a day for 5 days and animals were analyzed on day 6. Murine recombinant EGF (0.2-3.6 μg/g) (Prepro tech, Rocky Hill, N.J.) was dissolved in PBS and administered i.p. on the last day of the G-CSF regimen. Erlotinib (2.5-100 mg/kg) was dissolved in methylcellulose and administered by gavage on day 3, 4, and 5 of the G-CSF regimen. A specific Cdc42 inhibitor (0.5 mg/ml) was dissolved in PBS containing 15% ethanol and administered by tail vain 18 h after the last G-CSF injection. Mobilization efficiency was determined with HSPC obtained approximately 14-16 hours after the last injection received by the group of mice.
Colony forming cell assays. 150 μl of peripheral blood (PB) was added to Hank's balanced salt solution (HBSS) and mixed with 4 ml of methylcellulose (Stem Cell Technologies) containing 50 ng/ml rm SCF, 10 ng/ml rm IL-3 and 10 ng/ml rh JL-6 and incubated at 37° C. Samples were plated in triplicate in 6 well plates (Falcon) and colonies of more than 50 cells were counted between 7 to 10 days. CFC counts were also determined in spleen (1×10^5) using the same protocol. The results are presented as mean±s.d. A paired student's t-test was used to determine the significance of the difference between means of two groups. Values were considered significant when p<0.05.

[2] = system: BM derived progenitor cells adhering to FBMD-1 stromal cells; assay: CAFC progenitor adhesion assay on FBMD-1 stroma; assay type: cell-based, mice; conditions: BM derived HSPCs from G-CSF treated animals
Procedure: CAFC progenitor adhesion assays. FBMD-1 cells were seeded in IMDM supplemented with 15% FCS and 5% horse serum (Gibco) at a density of 1000 cells per well in a 96 well plate. BM cells were plated onto the FBMD-1 stroma cell line at 3000, 1500, 750 and 375 cells per well at 15 wells per cell concentration in CAFC medium (IMDM, supplemented with 20% horse serum (Gibco) and 10^−5 M hydrocortisone (Sigma)). To determine progenitor cell adhesion, non-adherent cells were washed off the FBMD-1 stroma after 2 hours and fresh CAFC medium was added to each well. The frequency of total HSPCs and adherent HSPCs was determined by counting the frequency of cobblestone areas at day 7 on the FBMD-1 stroma cell line.

[3] = system: hematopoietic stem cells; assay: Competitive transplantation of mobilized peripheral blood to measure stem cell frequency (donor chimerism); assay type: in vivo, mice
Procedure: Transplantations/Competitive transplantations. BM cells were harvested and pooled from the tibia and the femur of 6-8 week old mice (donor) as well as B6.5JL(BoyJ) (competitor) mice. […] BM cells were subsequently transplanted into the retro-orbital sinus in a volume of 200 μA in IMDM/2% FCS.
Flow cytometry. Immunostaining and flow cytometry analyses were performed according to standard procedures and analyzed on a FacsCanto flow cytometer (BD Biosciences). Anti-Ly5.2 (clone 104, BD Biosciences, FITC conjugated) and anti-Ly5.1 (clone A20, BD Biosciences, PE conjugated) monoclonal antibodies were used to distinguish donor from recipient and competitor cells. For lineage analysis in hematopoietic tissues, anti-CD3ε (clone 145-2C11, PE-Cy7 conjugated), anti-B220 (clone RA3-6B2, APC conjugated), anti-CD11b (clone M1/70, APC-Cy7 conjugated) and anti-Gr-1 (clone RB6-8C5, APC-Cy7 conjugated, all from BD Biosciences) were used.

[4] = system: Cdc42; assay: Rho-GTPase effector domain pull-down assay, Cdc42; assay type: in vivo, mice; conditions: for Cdc42 activity (GTP-bound form) in BM cells: in vivo in G-CSF treated animals, compared to G-CSF treatment alone (FIG. 7c, 7d)
Procedure: (§1) Rho-GTPase effector domain pull-down assays. Relative levels of GTP-bound RAC1, RAC2 and CDC42 were determined by an effector pull-down assay. Briefly, low density bone marrow cells (1×107) were lysed in a Mg2+ lysis/wash buffer (Upstate cell signaling solutions) containing 10% glycerol, 25 mM sodium fluoride, 1 mM sodium orthovanadate and a protease inhibitor cocktail (Roche Diagnostics). Samples were incubated with PAK-1 binding domain/agarose beads and bound (activated) as well as unbound (non-activated) Rho GTPases were probed by immunoblotting with antibodies specific for RAC1 (Upstate), RAC2 (Novus Biologicals) and CDC42 (BD Biosciences). Activated protein was normalized to total protein and β-actin (Sigma) and the relative amount was quantified by densitometry.

[5] = system: Rac2; assay: Rho-GTPase effector domain pull-down assay, Rac2; design: species or system mice; conditions: in vivo in G-CSF treated animals (data not shown)
Procedure: as §1

[6] = system: Rac1; assay: Rho-GTPase effector domain pull-down assay, Rac1; design: species or system mice; conditions: in vivo in G-CSF treated animals (data not shown)
Procedure: as §1

[7] = target: epidermal growth factor receptor (EGFR), mouse, wild type, on hematopoietic stem and progenitor cells (mouse) (UniProt Q01279); assay: cell-based or functional assay
[8] = system: EGFR; assay: EGFR expression in BM HSPCs by real time Q-RT-PCR; assay type: in vivo, mice; conditions: upon G-CSF treatment (FIG. 3a)
From the text: Whole genome expression analysis. RNA from sorted Lin-C-Kit+ cells were obtained with the Qiagen RNA assay micro kit according to the protocol of the manufacturer. RNA was subsequently linear amplified by the Affymetrix core at CCHMC and reverse transcribed with a Nugene Kit according to the manufacturer protocol. Labeled cDNA was then hybridized to and MOE430 array (Affymetrix) and raw expression data collected. Affymetrix .CEL files of the respective microarrays were imported into the statistical programming language R (www.r-project.org) using the affy Bioconductor (www.bioconductor.org) package. The data were then pre-processed (log2-transformed, background corrected, quantile normalized and summarized) using the rma function of the affy package. Affymetrix probes were filtered and re-grouped during summarization according to RefSeq annotation using custom chip description files (.CDF) for the MOE430 array provided by the Molecular and Behavioral Neuroscience Institute of the University of Michigan (Microarray Lab), http://brainarray.mbni.med.umich.edu/Brainarray/Database/CustomCDF/genomic_curated_CDF.asp). The expression level of the EGFR was subsequently confirmed by a Taqman real time PCR assay kit from Applied Biosystems (Assay ID: Mm01187863_g1)

For `C#Cc1cccc(Nc2ncnc3cc(OCCOC)c(OCCOC)cc23)c1` [Erlotinib, reference compound], the “mobilization efficiency of progenitor cells” value ([1]; Erlotinib 2.5-10 mg/kg over last 3 days of G-CSF regimen vs G-CSF (FIG. 5e)) was “significantly increased”, the “adhesion of progenitor cells to stroma” value ([2]; Erlotinib 10 mM (FIG. 7b)) was “significantly reduced adhesion” and the “mobilization efficiency of stem cells” value ([3]; Erlotinib 2.5-10 mg/kg over last 3 days of G-CSF regimen vs G-CSF, competitive transplantation read-out) was “significantly increased”. The “Cdc42 activity (GTP-bound form) in BM cells” value [4] was “significant decrease”, the “level of the GTP bound form of Rac2” value [5] was “did not detect a significant change” and the “level of the GTP bound form of Rac1” value [6] was “did not detect a significant change”.

“EGF: Murine recombinant EGF (epidermal growth factor), activating ligand of EGFR” was tested, and the “reduction of mobilization efficiency of progenitor cells” value ([1]; G-CSF stimulated animals, single dose EGF 0.8 μg/g on last day of G-CSF regimen (FIG. 3b)) was “approx. 4 fold”, the “mobilization efficiency of progenitor cells” value ([1]; G-CSF stimulated animals, single dose EGF 0.2-1.0 on last injection day of G-CSF regimen (FIG. 3b)) was “dose-dependent inhibition” and the “sensitivity to inhibition of mobilization efficiency by EGF” value ([1]; congenic line 1804 compared to B6 mice, G-CSF and EGF treatment (FIG. 3g)) was “significantly less sensitive”. The spontaneous mobilization ([1]; non-G-CSF treated animals, EGF dose range tested (data not shown)) was “did not restrict”, the mobilization efficiency ([1]; wa2+/- mice, G-CSF plus single injection of EGF on day 5 vs G-CSF alone (FIG. 3d)) was “unaffected” and the mobilization efficiency ([1]; wild type mice, G-CSF plus single injection of EGF on day 5 vs G-CSF alone (FIG. 3c)) was “significantly reduced”. The “adhesion of progenitor cells to stroma” value ([2]; EGF 200 ng/ml (FIG. 7a)) was “significantly enhanced adhesion”, the “reduction of contribution to chimerism 3 months post transplant (stem cells mobilized to PB)” value ([3]; G-CSF plus EGF (0.8 μg/g) vs G-CSF alone, equal volumes of blood (FIG. 3f)) was “approx. 5 fold” and the “Cdc42 activity (GTP-bound form) in BM cells” value [4] was “significant increase”. The “level of the GTP bound form of Rac2” value [5] was “did not detect a significant change” and the “level of the GTP bound form of Rac1” value [6] was “did not detect a significant change”.

“Murine recombinant EGF (epidermal growth factor) (from UniProt P01132 977-1029) (ligand)” was tested, and the mobilization efficiency of progenitor cells in G-CSF stimulated animals (CFC in peripheral blood) (fold reduction) [7] was 4 and the stem cell mobilization to PB (donor chimerism 3 months after competitive transplant) [7] was under 5 fold less.

B1: G-CSF: huG-CSF (Amgen), granulocyte colony-stimulating factor (protein, UniProt P09919 31-207, looked up)
Granulocyte …: TPLGPASSLPQSFLLKCLEQVRKIQGDGAALQEKLVSECATYKLCHPEELVLLGHSLGIPWAPLSSCPSQALQLAGCLSQLHSGLFLYQGLLQALEGISPELGPTLDTLQLDVADFATTIWQQMEELGMAPALQPTQGAMPAFASAFQRRAGGVLVASHLQSFLEVSYRVLRHLAQP
With B1 the “Cdc42 activity in LD-BM cells” value ([4]; B6 animals, G-CSF treated relative to control non-treated animals (FIG. 7e)) was “significantly increased”, the “Cdc42 activity in LD-BM cells” value ([4]; line 1804 animals upon G-CSF treatment (FIG. 7e)) was “not being altered” and the “EGFR expression levels in BM HSPCs” value [8] was “decreased”.
